Eleven compounds from ChEMBL document CHEMBL1201862, “PubChem BioAssay data set” (2004) can be followed below.

Each structure is given as a SMILES string.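 Cultured in 96-well plates, cells were exposed to test compound for 48 hours across five concentrations. GI50 is the concentration that inhibits growth by half.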 Active and inactive are the calls of the source. No stated cut-off is given here; in the data, active = GI50 up to about 1.1 µM and inactive = higher.

What all share (test): NCI tumour cell line growth inhibition, 48 h
Assay [1] has as its system K562.
Assay [2] deals with CCRF-CEM.
Assay [3] has as its system HCT-15.
Assay [4] relates to RPMI-8226.
The subject of assay [5] is SK-OV-3.
Assay [6] relates to UACC-257.
Assay [7] concerns HOP-92.
Assay [8] relates to NCI-H23.
Assay [9] deals with NCI-H460.
Assay [10] relates to MDA-MB-231.
Assay [11] concerns OVCAR-5.
For assay [12], the system named is U-251.
Assay [13] relates to SF-268.
Assay [14] relates to SNB-75.
For assay [15], the system named is PC-3.
Assay [16] deals with NCI/ADR-RES.
The subject of assay [17] is SF-295.
In assay [18] the test system is DU-145.
In assay [19] the test system is SK-MEL-5.
Assay [20] concerns HCC 2998.

In the case of `CC(C)C(O)(C(C)C)C(C)C`, the GI50 is > 100 µM (inactive) in assay [1]; > 100 µM (inactive) in assay [2]; greater than 100 µM in [3]; > 100 µM (inactive) in assay [4]; > 100 µM (inactive) in [5]; > 100 µM (inactive) in [6]. The GI50 in [7], in assay [8], in [9], in assay [10], in assay [11] and in assay [12] was > 100 µM (inactive) each time. Further, the GI50 in [13], in assay [14], in assay [15], in [16], in assay [17] and in assay [18] was > 100 µM (inactive) throughout. The GI50 in assay [19] is > 100 µM (inactive).

`S=C(Nc1c2c(nc3ccccc13)CCCC2)Nc1c2c(nc3ccccc13)CCCC2`: the GI50 in assay [1] is > 100 µM (inactive); in [2] it was > 100 µM (inactive); in assay [3] it was greater than 100 µM; in [4], > 100 µM (inactive); in [5] it was > 100 µM (inactive); in assay [20], > 100 µM (inactive). In addition, the GI50 in assay [6], in assay [8], in assay [9], in assay [10], in assay [11] and in [12] was > 100 µM (inactive) in each case. Further, the GI50 in assay [13], in assay [14], in [15], in [16], in assay [17] and in [18] was > 100 µM (inactive) in each case. Besides, the GI50 in assay [19] is > 100 µM (inactive).

On to `CCCCCCCCCCCCCCCCOC[C@H](COC(c1ccccc1)(c1ccccc1)c1ccccc1)O[PH](=S)OC` (some centres undefined), for which the GI50 in [1] was > 100 µM (inactive); in assay [2], > 100 µM (inactive); in assay [3], greater than 100 µM; in assay [4] it was > 100 µM (inactive); in [5], > 100 µM (inactive); in assay [6], > 100 µM (inactive). For the same compound, the GI50 in assay [7], in [8], in [9], in [10], in [11] and in assay [12] was > 100 µM (inactive) each time. Moreover, the GI50 in assay [13], in [14], in assay [15], in assay [16], in [17] and in assay [18] was > 100 µM (inactive) in each case. Moreover, the GI50 in assay [19] is > 100 µM (inactive).

Turning to `C=C(Br)CN(C(C)=O)C1CCCCC1`, the GI50 is > 100 µM (inactive) in assay [1]; > 100 µM (inactive) in assay [2]; greater than 100 µM in assay [3]; > 100 µM (inactive) in assay [4]; > 100 µM (inactive) in assay [5]; > 100 µM (inactive) in assay [20]. Further, the GI50 in assay [6], in assay [8], in [9], in [10], in assay [11] and in assay [12] was > 100 µM (inactive) in each case. For the same compound, the GI50 in assay [13], in [14], in assay [15], in assay [16], in assay [17] and in [18] was > 100 µM (inactive) each time. In [19], the GI50 was > 100 µM (inactive).

As to `CC(=O)O[C@H]1C(=O)[C@@]2(C)[C@H]([C@H](OC(=O)c3ccncc3)[C@]3(O)C[C@H](OC(=O)[C@H](O)[C@@H](NC(=O)c4ccccc4)c4ccccc4)C(C)=C1C3(C)C)[C@]1(OC(C)=O)CO[C@@H]1C[C@@H]2O`, the GI50 in assay [1] is 0.953 µM (active); in assay [2] it was 0.875 µM (active); in assay [3] it was greater than 25 µM; in assay [4] it was 0.881 µM (active); in assay [5] it was 14.2 µM (inactive); in assay [20], 3.24 µM (inactive). The GI50 in [6] was 8.3 µM (inactive); in [8], 12.6 µM (inactive); in [9], 9.14 µM (inactive); in assay [10], > 20 µM (inactive); in assay [11] it was 10 µM (inactive); in assay [12], 2.34 µM (inactive). The GI50 was > 11.6 µM (inactive) in assay [13]; 3.56 µM (inactive) in assay [14]; 6.56 µM (inactive) in assay [15]; > 25 µM (inactive) in [16]; > 16.9 µM (inactive) in [17]; 11.6 µM (inactive) in [18]. Also, the GI50 in [19] is 2.3 µM (inactive).

As for `N=C(N)N/N=C/c1c(-c2ccccc2[N+](=O)[O-])nc2sccn12`, the GI50 is 14.1 µM (inactive) in assay [1]; 19.4 µM (inactive) in assay [2]; greater than 100 µM in [3]; 19.5 µM (inactive) in [4]; 42.9 µM (inactive) in assay [5]; 18.3 µM (inactive) in assay [6]. Moreover, the GI50 was 27.1 µM (inactive) in assay [7]; 29.2 µM (inactive) in assay [8]; 19.1 µM (inactive) in [9]; 16.1 µM (inactive) in assay [10]; 30.7 µM (inactive) in assay [11]; 15.8 µM (inactive) in [12]. For the same compound, the GI50 in [13] is 28.8 µM (inactive); in assay [14] it was 11.9 µM (inactive); in [15] it was 24.3 µM (inactive); in assay [16], > 100 µM (inactive); in [17], 22 µM (inactive); in assay [18], 48.2 µM (inactive). Moreover, in [19], the GI50 is 16.9 µM (inactive).

For `C[n+]1c(-c2ccccc2)cc2/c(=C\c3ccc([N+](=O)[O-])cc3)c3ccccc3n21`, the GI50 in assay [2] is 0.692 µM (active); in assay [3], 14.3 µM; in assay [5] it was 4.8 µM (inactive); in assay [20] it was 11.3 µM (inactive); in assay [6], 4.99 µM (inactive); in assay [7], 1.66 µM (inactive). In addition, the GI50 in assay [8] was 2.51 µM (inactive); in [9] it was 1.45 µM (inactive); in [10], 3.24 µM (inactive); in assay [11], 6.85 µM (inactive); in assay [12], 1.43 µM (inactive); in [13] it was 3.47 µM (inactive). For the same compound, the GI50 was 3.18 µM (inactive) in [14]; 3.1 µM (inactive) in assay [15]; > 100 µM (inactive) in assay [16]; 3.21 µM (inactive) in [17]; 1.74 µM (inactive) in assay [18]; 1.95 µM (inactive) in assay [19].

For `COC1CC(n2ccc(=O)[nH]c2=O)OC1CO` (centres undefined), the GI50 in [1] was > 100 µM (inactive); in assay [2] it was > 100 µM (inactive); in assay [3], greater than 100 µM; in [5] it was > 100 µM (inactive); in [20], > 100 µM (inactive); in assay [6], > 100 µM (inactive). Besides, the GI50 in assay [7], in assay [8], in assay [9], in assay [10], in [11] and in [12] was > 100 µM (inactive) in each case. In addition, the GI50 in assay [13], in [15], in assay [16], in [17], in [18] and in assay [19] was > 100 µM (inactive) throughout.

For the compound `CCCCC(Sc1cc(Cl)c(C)cc1S(=O)(=O)Nc1nc(N)n[nH]1)C(=O)OC` (centres undefined), the GI50 in assay [1] is > 10 µM (inactive); in [2], > 10 µM (inactive); in [3], greater than 10 µM; in [4], > 10 µM (inactive); in [5], > 10 µM (inactive); in [20] it was > 10 µM (inactive). In addition, the GI50 in assay [6], in [8], in [9], in assay [10], in assay [11] and in assay [12] was > 10 µM (inactive) each time. In addition, the GI50 in assay [13], in [14], in assay [15], in assay [16], in [17] and in assay [18] was > 10 µM (inactive) each time. Further, the GI50 in [19] was > 10 µM (inactive).

Regarding `Cc1ccc(C(=O)Nc2ccc(CP(=O)(O)O)cc2)cc1NC(=O)Nc1cc(C(=O)Nc2ccc(CP(=O)(O)O)cc2)ccc1C`, the GI50 was > 100 µM (inactive) in assay [2]; greater than 100 µM in assay [3]; > 100 µM (inactive) in assay [4]; > 100 µM (inactive) in [5]; > 100 µM (inactive) in assay [20]; > 100 µM (inactive) in assay [6]. The GI50 in assay [8], in [9], in [10], in [11], in assay [12] and in [13] was > 100 µM (inactive) throughout. Besides, the GI50 in assay [14], in [15], in assay [16], in [17], in assay [18] and in assay [19] was > 100 µM (inactive) each time.

In the case of `COc1ccc(-c2nnc3n(C)c4ccccc4n3c2=O)cc1`, the GI50 in assay [2] is > 100 µM (inactive); in assay [3] it was greater than 100 µM; in assay [20], > 100 µM (inactive); in assay [6], > 100 µM (inactive); in [7], > 100 µM (inactive); in assay [8], 40.1 µM (inactive). For the same compound, the GI50 was 38.3 µM (inactive) in [9]; 18.2 µM (inactive) in assay [10]; > 100 µM (inactive) in assay [11]; 27.7 µM (inactive) in [12]; 29.6 µM (inactive) in [13]; 20.8 µM (inactive) in assay [14]. For the same compound, the GI50 in [15] was > 100 µM (inactive); in [16], > 100 µM (inactive); in assay [17] it was 29.7 µM (inactive); in assay [18] it was > 100 µM (inactive); in assay [19], > 100 µM (inactive).
